In article PMC10887108, “Novel Brain-Penetrant, Small-Molecule Tubulin Destabilizers for the Treatment of Glioblastoma” (Biomedicines, 2024):

Test system: GBM12, GBM15, GBM39 and GBM43 patient-derived GB cell lines
Experiment: CellTiter-Glo viability assay, four patient-derived GB cell lines
Assay type: cell-based
Conditions: Homo sapiens, 144 h, read-out: IC50 cell viability, range over four patient-derived GB cell lines
Method: Short-term cultures of patient-derived cells GBM12, GBM15, GBM39 and GBM43 (used with permission Mayo Foundation) were seeded (1000 cells/well) in solid white Corning 384-well plates (Corning, NY, USA) and cultured overnight. Cells were treated with DMSO or RGN3067 in a 13-point dose response with a 1:3 serial dilution from an initial concentration of 100 μM. After 144 h, cell viability was measured using CellTiter-Glo (Promega, Madison, WI, USA). Data were normalized to DMSO control, and absolute IC50 values were calculated using GraphPad Prism 10 (San Diego, CA, USA).

## CO[C@H]1C[C@@H](C(=O)NC(=O)Nc2ccc(Oc3ccc(Cl)cn3)c(C)c2)C1 [RGN3067]
  IC50: 148 to 616 nM
